1 compound from US20240299504A1, “COMPOSITIONS AND METHODS FOR TREATING ALZHEIMERS DISEASE” (priority 2023, published 2024) can be followed below.

Structures are written as SMILES.

Holding throughout (format): in vivo, mouse
Assay [1] deals with IBA1+ microglia. Description: Co-immunostaining ThioS/IBA1/LPL, microglial cells. The note with it: 6-MO 5×FAD female mice vs Veh. On the procedure: (§1) Parathyroid hormone (human) was purchased from TOCRIS Bioscience (Cat #3011/1, Abingdon, United Kingdom). WT or 5×FAD mice (both male and female) were treated with PTH1-34 intermittently [once daily injection of hPTH1-34 (50 μg/Kg) or vehicle (0.9% sodium chloride) (as a control) by subcutaneous injection, starting at 2-MO, 5 days per week] as described previously. Mice were then subjected to behavioral tests and sacrificed for examinations of their bone and brain phenotypes at the indicated ages.
(§2) DAPI was used for nucleus staining.

Assay [2] deals with p16Ink4a and p53. The assay can be described thus: Senescence markers in hippocampus (RT-PCR, Western blot). As for the experimental part:
as §1
Total proteins from cortex, hippocampus, or cultured astrocytes were extracted using RIPA lysis buffer [50 mM Tris-HCl (pH7.5), 150 mM NaCl, 1 mM EDTA, 1% v/v NP-40, 0.1% SDS, 1% sodium deoxycholate supplemented with Protease Inhibitor Cocktail (Roche) and 1 mM PMSF] and analyzed by Western Blot. Lysates were cleared by centrifugation at 12,000 g for 15 min at 4° C. to remove debris and to obtain homogenates. Homogenates samples were resolved by SDS-PAGE (8˜15%) gels and then electroblotted onto nitrocellulose membranes (Cat #1620112, Bio-Rad Laboratories). […] After washing with TBST 3 times, antibody reactivity was detected by the Enhanced Chemiluminescence (ECL) detection system (Amersham Biosciences). Band density of proteins was normalized in relation to loading control and analyzed using NIH ImageJ software. […]
On the technique in general: In western blotting, separated proteins are transferred to a membrane and probed.

Assay [3] deals with Aβ plaques. The assay can be described thus: Aβ deposition assay (Thioflavin S staining). The settings on record: vs Veh. As for the experimental part:
as §1
Thioflavin S (Thio-S) staining was used for Aβ deposition assay as previously described with minimal modification. Beginning with the lateral-most section in the ROI (region of interest), every sixth tissue section of six consecutive sections was used. […] The brain slices were then washed with a series of graded EtOH in the dark as follows: 95% EtOH for 2 min, 80% EtOH for 2 min, and 70% EtOH for 2 min. Finally, the brain slices were washed with PBS 3 times in the dark and transferred to slides for sealing with an antifade fluorescence mounting medium. All the brain slices were captured on a Laser confocal microscopy. The images were adjusted to the same threshold to increase signal-to-noise ratio. Plaques >5.5 μm^2 were quantified. Four sections per mouse were quantified. The layers or sub-regions of cortex and hippocampus in each image were outlined and analyzed with the National Institutes of Health ImageJ software.

Assay [4] concerns GFAP+ astrocytes. The assay can be described thus: Co-immunostaining ThioS/GFAP, reactive astrocytes. On the procedure: as §1, §2
In assay [5] the test system is ATG9A+ dystrophic neurites. The assay can be described thus: Co-immunostaining ThioS/ATG9A, plaque-associated dystrophic neurites. The settings on record: cortex and hippocampus, ~6 MO 5×FAD female mice vs Veh. On the procedure:
as §1, §2

Assay [6] has as its system PYD (pyridinoline). Description: Serum PYD ELISA (bone resorption marker). The note with it: 6-MO female 5×FAD mice, compared to WT controls; 50 μg/Kg s.c. intermittent. As for the experimental part:
as §1
Submandibular blood collection was performed in anesthetized mice. A swift lancing motion is used to puncture the vessel. Blood sample (up to 200 μl) was collected with a pipette or other collection tube, allowed to stand at room temperature for 30 min and centrifuged for 15 min at 3000 rpm. Supernatant serum was aliquot and frozen at −80° C. until use. Mouse serum levels of osteocalcin (a marker for bone formation), PYD (pyridinoline, a marker for bone resorption), and PTH were measured using mouse osteocalcin Elisa kit (QUIDEL Corporation), METRA Serum PYD EIA kit (QUIDEL Corporation, San Diego, CA, USA), and mouse PTH Elisa kit (MyBioSource), respectively, following the manufacturers' instruction.
Background: An ELISA detects its analyte on a solid surface through an enzyme-linked reagent.

Assay [7] concerns proinflammatory cytokines and chemokines. Description: qRT-PCR of proinflammatory cytokines and chemokines in cortex and hippocampus. The note with it: 6-MO 5×FAD female mice. On the procedure:
as §1
Total RNA was extracted from cortex, hippocampus, or cultured astrocytes using a TRizol reagent (Invitrogen, cat #15596-026, Carlsbad, CA, USA) as previously described. Purified RNA (1-5 μg) was used for cDNA synthesis with the Revert Aid First Strand cDNA Synthesis Kit (Thermo Scientific, cat #K1621, Waltham, MA, USA). The cDNA products were subjected to subsequent quantitative PCR (qPCR) using the QuantiFast SYBR Green PCR Kit (QIA-GEN, cat #204057, Hilden, Germany) with a qPCR System (StepOne Plus). Each sample was repeated at least 3 times, and the mRNA level was normalized to GAPDH using the 2^−ΔΔCt method.
A general note: In qPCR the cycle at which signal appears reflects the starting amount.

In the case of `CC[C@H](C)[C@H](NC(=O)[C@H](CCC(=O)O)NC(=O)[C@H](CO)NC(=O)[C@@H](NC(=O)[C@@H](N)CO)C(C)C)C(=O)N[C@@H](CCC(N)=O)C(=O)N[C@@H](CC(C)C)C(=O)N[C@@H](CCSC)C(=O)N[C@@H](Cc1cnc[nH]1)C(=O)N[C@@H](CC(N)=O)C(=O)N[C@@H](CC(C)C)C(=O)NCC(=O)N[C@@H](CCCCN)C(=O)N[C@@H](Cc1cnc[nH]1)C(=O)N[C@@H](CC(C)C)C(=O)N[C@@H](CC(N)=O)C(=O)N[C@@H](CO)C(=O)N[C@@H](CCSC)C(=O)N[C@@H](CCC(=O)O)C(=O)N[C@@H](CCCN=C(N)N)C(=O)N[C@H](C(=O)N[C@@H](CCC(=O)O)C(=O)N[C@@H](Cc1c[nH]c2ccccc12)C(=O)N[C@@H](CC(C)C)C(=O)N[C@@H](CCCN=C(N)N)C(=O)N[C@@H](CCCCN)C(=O)N[C@@H](CCCCN)C(=O)N[C@@H](CC(C)C)C(=O)N[C@@H](CCC(N)=O)C(=O)N[C@@H](CC(=O)O)C(=O)N[C@H](C(=O)N[C@@H](Cc1cnc[nH]1)C(=O)N[C@@H](CC(N)=O)C(=O)N[C@@H](Cc1ccccc1)C(=O)O)C(C)C)C(C)C` [PTH1-34], in assay [1], the “Aβ associated LPL+IBA1+ microglial cells (DAM)” value is given as “little to no difference”; the “IBA1+ cell density and fluorescence intensity in regions without Aβ plaques” value is listed as “comparable”; the “ThioS+ Aβ plaque associated IBA1 fluorescence” value is reported as “unchanged”. In assay [1] (cortex and hippocampus), the “overall IBA1 fluorescence intensity” value is “lower in PTH1-34 treated 5×FAD cortex and hippocampus than that of Veh controls”. Also, the “p53 protein (Western blot)” value in assay [2] (hippocampus homogenates, 6-MO female 5×FAD mice) is listed as “reduced”. Further, the “p16Ink4a and p53 transcripts (RT-PCR)” value in assay [2] (hippocampus, 6-MO 5×FAD female mice) is recorded as “great reduction”. Further, in assay [3] (female 5×FAD cortex), the “reduction in plaque density” value is recorded as about 46% and the “reduction in plaque size” value is about 34%. For the same compound, in assay [3] (female 5×FAD hippocampus), the “reduction in plaque density” value was about 59% and the “reduction in plaque size” value is about 56%. Moreover, in assay [3] (male 5×FAD cortex), the “reduction in plaque density” value is reported as about 32% and the “reduction in plaque size” value is listed as about 28%. Moreover, in assay [3] (male 5×FAD hippocampus), the “reduction in plaque density” value is reported as about 50% and the “reduction in plaque size” value is on record as about 23%. In addition, in assay [4] (female and male 5×FAD mice, 6-MO), the “inhibition of glial cell activation (GFAP, IBA1), by sex” value was “detectable in both female and male 5×FAD mice”. In assay [4] (layers of cortex (except layer II/III) and DG region of hippocampus, ~6 MO female 5×FAD vs Veh), the “GFAP+ fluorescence intensity” value is given as “lower in PTH1-34 treated 5×FAD mice than that of Veh controls”. The “effect on glial cells (GFAP, IBA1)” value in assay [4] (wild-type (WT) female mice, 6-MO) is given as “little effect”. Also, the “plaque-associated GFAP fluorescence” value in assay [4] (~6 MO female 5×FAD cortex and hippocampus vs Veh) was “diminished”. Also, the “ATG9A+ dystrophic neurites” value in assay [5] is “smaller and less dense ATG9A+ dystrophic neurites”. Besides, the “serum PYD levels” value in assay [6] is reported as “little to no effect on serum PYD levels in 5×FAD mice”. The “expression of upregulated inflammatory cytokines or chemokines (RT-qPCR)” value in assay [7] (cortex and hippocampus) was “largely brought down to nearly normal levels”. The “expression of GM-CSF, RANKL and OPG (RT-qPCR)” value in assay [7] (cortex) is “unaffected”.
